Assay [1] addresses T1, hyaluronidase originating from bull testicles (type IV-S) (Bos taurus, UniProt Q2YDK3).
T1 construct: hyaluronidase originating from bull testicles (type IV-S); from tissue; host or cells: bull testicles
T1 sequence (Q2YDK3 36-553): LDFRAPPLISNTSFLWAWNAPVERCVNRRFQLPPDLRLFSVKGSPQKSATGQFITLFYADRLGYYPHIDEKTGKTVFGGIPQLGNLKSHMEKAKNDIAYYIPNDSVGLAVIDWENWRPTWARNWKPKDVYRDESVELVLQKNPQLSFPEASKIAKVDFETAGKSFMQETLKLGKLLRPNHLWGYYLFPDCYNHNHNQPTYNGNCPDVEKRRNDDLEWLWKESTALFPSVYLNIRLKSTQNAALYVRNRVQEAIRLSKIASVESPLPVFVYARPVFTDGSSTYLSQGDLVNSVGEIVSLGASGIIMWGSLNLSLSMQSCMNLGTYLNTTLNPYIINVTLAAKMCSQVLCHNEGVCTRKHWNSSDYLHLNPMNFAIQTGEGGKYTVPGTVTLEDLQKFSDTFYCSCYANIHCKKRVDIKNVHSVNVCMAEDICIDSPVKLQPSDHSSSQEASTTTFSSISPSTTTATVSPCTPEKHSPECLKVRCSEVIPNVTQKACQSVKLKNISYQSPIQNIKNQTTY
The experiment in a line: Anti-hyaluronidase inhibiting activity, hyaluronic acid as substrate, precipitation with acidic BSA. The assay is classed as biochemical. As to the method:
A root extract of Morus Alba was prepared in accordance with the protocol described in Example 5. Hyaluronidase catalyzes the hydrolysis of hyaluronic acids into monosaccharides, disaccharides and short oligosaccharides. The measurement of the anti-hyaluronidase inhibiting activity was carried out using hyaluronic acid (HA) as a substrate in order to follow its reduction during the enzymatic reaction, the slope of the reduction of the concentration of HA during the reaction being proportional to the enzymatic activity.
The concentration of HA was measured in accordance with the following principle: in the presence of an acidic solution of bovine serum albumin, HA precipitates. Thus, in the case of the presence of HA, a precipitate is formed and in the case of complete hydrolysis of the HA, no precipitate is observed. Thus, the quantity of precipitation is proportion& to the HA content. […]
In order to follow the enzymatic degradation of the HA, a volume of 50 μl of RM was removed every 15 minutes, mixed with a volume of 250 μL of the solution of acidic BSA (acidic solution of bovine serum albumin: 24 mM sodium acetate, 79 mM acetic add and 0.1% (w/v) bovine serum albumin, pH 3.75) then incubated for 10 min at ambient temperature. The quantity of precipitate formed was then measured using a plate reader (diffusion of light at 600 nm). […]

The subject of assay [2] is hyaluronidase. Description: Target Binding affinity test for hyaluronidase. The following applies: ligands in non-stimulated M. alba root extract; moracenin B = reference ligand. As to the method:
A root extract of Morus Alba was prepared in accordance with the protocol described in Example 2.1. The Target Binding® method used was that of Example 2.3 which is described in patent application FR 1 670 545. The experimental protocol was as follows: The target, a 5 mg/mL solution of hyaluronidase, was prepared by dissolving powdered lyophilized enzyme in 50 mM sodium phosphate, with a pH of 7.0. The extract corresponded to the supernatant obtained in accordance with Example 2.1. It could optionally be centrifuged once again before use, at 21000 g for 15 min, in order to eliminate the solid particles before use. A reference sample was also prepared by diluting the sample 10-fold in a solution of water and a quarter of the volume of acetonitrile.
1. Preconditioning step—Wells with a filtering membrane were preconditioned with a volume of 500 μL of a solution of 50 mM sodium phosphate, at a pH of 7.0 which was passed through the membrane by centrifuging at 14000 g for 60 seconds.
2. Binding step—The hyaluronidase preparation (5 mg/mL) was mixed with 7.5 μL of the root extract for 5 min in a plastic Eppendorf tube.
3. Washing step—the mixture of the enzyme and the root extract was deposited in a well that had been preconditioned in the preconditioning step, then centrifuged at 14000 g until most of the solvent had been eliminated. The enzyme-ligand complexes remained on the surface of the membrane of the filter then were re-suspended in a volume of 100 μL of the same solution of 50 mM sodium phosphate at a pH of 7.0, and centrifuged at 14000 g until the solvent had been eliminated. This procedure was repeated three times and eliminated all of the compounds that were not bound to the enzyme. 4. Separation step—The enzyme-ligand complexes retained in the filter were re-suspended in a volume of 10 μL of ultra-pure water then mixed with a volume of 40 μL of acetonitrile in order to denature and precipitate the enzyme and at the same time to liberate the ligands. The mixture was centrifuged at 21000 g for 10 min in order to separate the precipitate from the supernatant. 5. Analysis step—Said supernatant was analyzed by liquid phase chromatography coupled to a mass spectrometer, also known by the acronym UPLC-MS. The reference sample was also analyzed in the same manner, using the same analytical conditions.
The UPLC-MS analysis was carried out in accordance with the protocol described in Example 1.

The term inhibition denotes the drop in the measured response relative to a control, in per cent. A high value points to a strong effect. For `CC(C)=CCc1c(O)ccc(C(=O)[C@@H]2CC(C)=C[C@H](c3c(O)cc(O)c4c(=O)c(CC=C(C)C)c(-c5ccc(O)cc5O)oc34)[C@H]2c2ccc(O)cc2O)c1O` [Moracenin A, moracenin A], in assay [1], the inhibition at 10 µM came to 55.1%. Further, the “Relative affinity (RA) for hyaluronidase” value in assay [2] was found to be 1.9.

For `CC(C)=CCc1c(-c2ccc(O)cc2O)oc2c([C@H]3C=C(C)C[C@H](C(=O)c4ccc(O)cc4O)[C@@H]3c3ccc(O)cc3O)c(O)cc(O)c2c1=O` [Moracenin B, moracenin B], the “Relative affinity (RA) for hyaluronidase” value in assay [2] was 1.0.

In the case of `CC(C)=CCc1c(O)ccc(C(=O)C2C(c3ccc(O)cc3O)CC3(C)CC2c2c(O)cc(-c4cc5ccc(O)cc5o4)cc2O3)c1O` (stereo not shown) [Wittiorumin F, wittiorumin F], in assay [2], the “Relative affinity (RA) for hyaluronidase” value came to 2.1.

Source of the values: US11311593B2, “Root extracts from plants of the Morus genus and uses of same” (PLANT ADVANCED TECHNOLOGIES PAT, priority 2017, dated 2022).
